Measured values: EP0765662A1, “HIV GROWTH INHIBITORY COMPOSITION” (Kochi, Mutsuyuki, priority 1994, dated 1995)
Structures can show the parent of a compound that is named as a salt. Where two headings read alike, the source gives them in different places.

Legend:
[1] = Cytotoxicity of SBA, trypan blue dye-exclusion, U1 cells; type: cell-based; conditions: human, read-out: Rate of survival of the cells (%)
From the text: It is known that stimulation of HIV gene by TPA and tumor necrosis factor (TNF) can activate the HIV gene which is latent as the HIV-provirus within the T-cells as infected with HIV and said stimulation can thus strongly induce the progresses of sprouting and release of the viral particles of HIV. It is considered that said activation of the HIV gene for the occurrence or developement of HIV virus would be caused by such an oxidation stress which is brought about within the host cells by any stimulation given from outside the host cells as above-mentioned. Further, such discoveries and observations have been reported that NFkB, which is a nuclear factor wthin the cells, can play important part in the proliferation of HIV virus, and that the oxidation-reduction status of the NFkB is important for the activation of this factor NFkB, and so on. […] (a) Test of examining cytotoxicity of SBA against various kinds of T-cells A3.01 cells (HAT-susceptible CEM cell strain), A3.01 cells as infected with HIV, and the above-mentioned U1 cells were cultivated, respectively, in an improved RPM1-1640 media containing SBA added at different concentrations. After the cultivation, the number of the cells under test which still survived was determined under a polarizing microscope by a trypan blue dye-exclusion method.

HIV-1 (HTLV-IIIB strain) = test: Occurrence of HIV-1 positive cells in U1 cells with or without TPA stimulation (indirect fluorescent antibody technique); type: cell-based; conditions: for Rate (%) of occurrence of HIV-1 positive cells: U1 cells
Procedure: As the cell to be tested here for estimation of the occurrence of HIV in this Example, there were used such U1 cells which had been prepared by introducing 2 copies of the gene DNA of HIV-1 (HTLV-IIIB strain) into U937 cells (human monocytic blast-like cells, namely one sort of human T-cells). The U1 cell is an HIV potentially-infected T-cell wherein the HIV-1 gene is present merely as provirus.
The above-mentioned U1 cells were seeded and incubated in Costar 48-well-plates under such different conditions as indicated below. Thus, the U1 cells were seeded in a culture medium and were incubated in the presence of 5,6-O-benzylidene-L-ascorbic acid mono-sodium salt (hereinafter abbreviated as SBA) as incorporated at different concentrations by addition of SBA to the culture medium, or the U1 cells were incubated in the absence of SBA. The incubation of these U1 cells was further effected with such both two types of those U1 cells, namely with such one type of U1 cells which had been stimulated further by addition of TPA at various concentrations thereto, and with such another type of U1 cells which had not been stimulated by TPA.
When the U1 cells as stimulated by the addition of TPA were incubated, replication of the viral particles of HIV took place in considerable numbers of the U1 cells, resulting in the production of the HIV antigen within the cells, so that said cells thus became such HIV-positive cells which could sprout and release the viral particles of HIV therefrom. This replication of the viral particles of HIV can be detected by an indirect fluorescent antibody technique as illustrated below.
The U1 cells were thus incubated under the different conditions as explained in the above, including such a case where both SBA and TPA were not added; such a case where SBA was added, but TPA was not added; such a case where SBA was not added, but TPA was added; and such as case where both SBA and TPA were added, respectively. Then, the replication of the viral particles of HIV within the U1 cells, and the release of the viral particles of HIV from the U1 cells so incubated under the different conditions as above mentioned were detected by means of the indirect fluorescence technique in which there were employed a mouse monoclonal antibody having an anti-HIV-1 activity as a primary antibody and also employed an FITC-rabbit-originated […] as a secondary antibody. The number of the U1 cells which could be detected as the HIV-positive cells was calculated in term of percentage (%) on the basis of the total numbers of the U1 cells as subjected to the test, and it was expressed as the rate (%) of occurrence or appearance of the HIV-1 positive cells.

O=C1O[C@H]([C@@H]2COC(c3ccccc3)O2)C(O)=C1O (stereo partly drawn) [SBA, 5,6-O-benzylidene-L-ascorbic acid mono-sodium salt]
viability ([1]; SBA 100 µg/ml): 90% | viability ([1]; SBA 500 µg/ml): 100% | viability ([1]; SBA 800 µg/ml): 83% | viability ([1]; SBA 1000 µg/ml): 92% | IC50 (HIV-1 (HTLV-IIIB strain); Human immunodeficiency virus 1, IIIB, U1 cells incubated in the presence of TPA, read-out: concentration of SBA required to achieve 50% inhibition of the replication of the HIV viral particles): ~400 µg/mL | Rate (%) of occurrence of HIV-1 positive cells (HIV-1 (HTLV-IIIB strain); SBA 25 µg/ml, TPA (1 ng/ml) was added): 26% | Rate (%) of occurrence of HIV-1 positive cells (HIV-1 (HTLV-IIIB strain); SBA 25 µg/ml, TPA was not added): 3% | Rate (%) of occurrence of HIV-1 positive cells (HIV-1 (HTLV-IIIB strain); SBA 50 µg/ml, TPA (1 ng/ml) was added): 21% | Rate (%) of occurrence of HIV-1 positive cells (HIV-1 (HTLV-IIIB strain); SBA 50 µg/ml, TPA was not added): 2% | Rate (%) of occurrence of HIV-1 positive cells (HIV-1 (HTLV-IIIB strain); SBA 100 µg/ml, TPA (1 ng/ml) was added): 16% | Rate (%) of occurrence of HIV-1 positive cells (HIV-1 (HTLV-IIIB strain); SBA 100 µg/ml, TPA was not added): 2% | Rate (%) of occurrence of HIV-1 positive cells (HIV-1 (HTLV-IIIB strain); SBA 200 µg/ml, TPA (1 ng/ml) was added): 14% | Rate (%) of occurrence of HIV-1 positive cells (HIV-1 (HTLV-IIIB strain); SBA 200 µg/ml, TPA was not added): 3% | Rate (%) of occurrence of HIV-1 positive cells (HIV-1 (HTLV-IIIB strain); SBA 400 µg/ml, TPA (1 ng/ml) was added): 12% | Rate (%) of occurrence of HIV-1 positive cells (HIV-1 (HTLV-IIIB strain); SBA 400 µg/ml, TPA was not added): 3% | Rate (%) of occurrence of HIV-1 positive cells (HIV-1 (HTLV-IIIB strain); SBA 800 µg/ml, TPA (1 ng/ml) was added): 8% | Rate (%) of occurrence of HIV-1 positive cells (HIV-1 (HTLV-IIIB strain); SBA 800 µg/ml, TPA was not added): 4%
